Assay results from ChEMBL document CHEMBL1221198 (Nat Chem Biol, 2007).

Tests used:
[1] = target: T1, Ribosomal protein S6 kinase alpha-3 (Homo sapiens, UniProt P51812); experiment: Inhibition of His6-tagged RSK2 C-terminal domian expressed in Escherichia coli after 30 mins
[2] = target: T1, Ribosomal protein S6 kinase alpha-3; experiment: Inhibition of PMA-stimulated RSK2 phosphorylation in HEK293 cells after 1 hr by Western blotting analysis; assay type: cell-based
HEK293 [3] = experiment: Inhibition of RSK-mediated rpS6 phosphorylation at Ser236 residues in human PMA-stimulated HEK 293 cells at 30 uM after 1 hr by Western blotting; assay type: cell-based
HEK293 [4] = experiment: Inhibition of RSK-mediated rpS6 phosphorylation at Ser235 residues in human PMA-stimulated HEK 293 cells at 30 uM after 1 hr by Western blotting; assay type: cell-based

T1 sequence (P51812 whole entry): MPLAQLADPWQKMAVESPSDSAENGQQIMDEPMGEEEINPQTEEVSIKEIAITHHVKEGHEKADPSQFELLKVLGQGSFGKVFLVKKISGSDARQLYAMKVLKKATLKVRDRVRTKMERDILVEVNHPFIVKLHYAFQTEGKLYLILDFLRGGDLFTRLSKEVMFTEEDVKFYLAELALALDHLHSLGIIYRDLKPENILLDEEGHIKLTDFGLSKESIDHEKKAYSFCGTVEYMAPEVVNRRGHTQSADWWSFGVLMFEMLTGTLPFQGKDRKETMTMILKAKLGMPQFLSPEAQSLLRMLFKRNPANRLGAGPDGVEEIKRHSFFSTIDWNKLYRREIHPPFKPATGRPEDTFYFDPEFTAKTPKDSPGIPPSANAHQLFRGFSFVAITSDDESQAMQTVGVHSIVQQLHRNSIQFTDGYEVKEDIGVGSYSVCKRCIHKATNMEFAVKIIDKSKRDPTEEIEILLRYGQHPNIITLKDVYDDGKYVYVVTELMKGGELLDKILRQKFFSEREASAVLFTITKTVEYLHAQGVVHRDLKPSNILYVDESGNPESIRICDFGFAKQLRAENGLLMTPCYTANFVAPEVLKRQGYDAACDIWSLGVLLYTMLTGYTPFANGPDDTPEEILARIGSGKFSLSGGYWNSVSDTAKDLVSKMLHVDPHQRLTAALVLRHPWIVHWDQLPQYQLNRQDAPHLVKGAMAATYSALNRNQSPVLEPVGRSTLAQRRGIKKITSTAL

SMILES	IC50 [1] [nM]	EC50 [2] [µM]	inhibition (HEK293 [3]) [%]	inhibition (HEK293 [4]) [%]
CC1=CC(C)=[N+]2C1=Cc1ccc(CCC(=O)NCCCCCC(=O)NCCCCNC(=O)OCCCn3c(C(=O)CF)c(-c4ccc(C)cc4)c4c(N)ncnc43)n1[B-]2(F)F	1700	10		
CO[C@H]1C[C@@H]2CC[C@@H](C)[C@@](O)(O2)C(=O)C(=O)N2CCCC[C@H]2C(=O)O[C@H]([C@H](C)C[C@@H]2CC[C@@H](O)[C@H](OC)C2)CC(=O)[C@H](C)/C=C(\C)[C@@H](O)[C@@H](OC)C(=O)[C@H](C)C[C@H](C)/C=C/C=C/C=C/1C			76	76
